± gives the expanded uncertainty stated by the source.
Settings: 101.33 kPa, Liquid; for viscosity: Capillary tube (Ostwald / Ubbelohde) method; for electrical conductivity: Wayne-Kerr 6430B Autobalance Bridge electrode

## CCCC(=O)[O-].CCCC[n+]1ccn(C)c1 [3-butyl-1-methyl-1H-imidazolium butanoate]
303.15 K
  viscosity: 364.3 ± 16 mPa·s
  electrical conductivity: 0.04102 ± 0.00041 S/m
308.15 K
  electrical conductivity: 0.0558 ± 0.00056 S/m
313.15 K
  viscosity: 193.1 ± 6.3 mPa·s
  electrical conductivity: 0.0752 ± 0.00076 S/m
318.15 K
  electrical conductivity: 0.0992 ± 0.001 S/m
323.05 K
  electrical conductivity: 0.129 ± 0.0013 S/m
323.15 K
  viscosity: 111.6 ± 2.4 mPa·s
328.15 K
  electrical conductivity: 0.165 ± 0.0017 S/m
333.15 K
  viscosity: 69.24 ± 0.9 mPa·s
  electrical conductivity: 0.208 ± 0.0021 S/m
338.15 K
  electrical conductivity: 0.258 ± 0.0026 S/m
343.15 K
  viscosity: 45.43 ± 0.58 mPa·s
  electrical conductivity: 0.315 ± 0.0032 S/m

## CCC(=O)[O-].CCCC[n+]1ccn(C)c1 [3-butyl-1-methyl-1H-imidazolium propanoate]
303.15 K
  viscosity: 325.7 ± 14 mPa·s
  electrical conductivity: 0.0703 ± 0.00071 S/m
308.15 K
  electrical conductivity: 0.0902 ± 0.00091 S/m
313.15 K
  viscosity: 171.5 ± 5.2 mPa·s
  electrical conductivity: 0.1201 ± 0.0012 S/m
318.15 K
  electrical conductivity: 0.156 ± 0.0016 S/m
323.05 K
  electrical conductivity: 0.198 ± 0.002 S/m
323.15 K
  viscosity: 99.27 ± 1.9 mPa·s
328.15 K
  electrical conductivity: 0.248 ± 0.0025 S/m
333.15 K
  viscosity: 61.78 ± 0.72 mPa·s
  electrical conductivity: 0.306 ± 0.0031 S/m
338.15 K
  electrical conductivity: 0.3716 ± 0.0037 S/m
343.15 K
  viscosity: 40.75 ± 0.51 mPa·s
  electrical conductivity: 0.447 ± 0.0045 S/m

## CC(=O)[O-].CCCCn1cc[n+](C)c1 [1-butyl-3-methylimidazolium acetate]
303.15 K
  viscosity: 288.8 ± 12 mPa·s
  electrical conductivity: 0.0731 ± 0.00074 S/m
308.15 K
  electrical conductivity: 0.1014 ± 0.001 S/m
313.15 K
  viscosity: 149.9 ± 4.2 mPa·s
  electrical conductivity: 0.136 ± 0.0014 S/m
318.15 K
  electrical conductivity: 0.178 ± 0.0018 S/m
323.15 K
  viscosity: 86.13 ± 1.5 mPa·s
  electrical conductivity: 0.229 ± 0.0023 S/m
328.15 K
  electrical conductivity: 0.2902 ± 0.0029 S/m
333.15 K
  viscosity: 53.43 ± 0.58 mPa·s
  electrical conductivity: 0.36 ± 0.0036 S/m
338.15 K
  electrical conductivity: 0.44 ± 0.0044 S/m
343.15 K
  viscosity: 35.33 ± 0.44 mPa·s
  electrical conductivity: 0.5319 ± 0.0053 S/m

## CCCC[n+]1ccn(C)c1.O=C[O-] [3-butyl-1-methyl-1H-imidazolium formate]
303.15 K
  viscosity: 138.5 ± 3.4 mPa·s
  electrical conductivity: 0.1909 ± 0.0019 S/m
308.15 K
  electrical conductivity: 0.249 ± 0.0025 S/m
313.15 K
  viscosity: 80.53 ± 1.3 mPa·s
  electrical conductivity: 0.319 ± 0.0032 S/m
318.15 K
  electrical conductivity: 0.4019 ± 0.004 S/m
323.15 K
  viscosity: 50.78 ± 0.53 mPa·s
  electrical conductivity: 0.498 ± 0.005 S/m
328.15 K
  electrical conductivity: 0.6125 ± 0.0061 S/m
333.15 K
  viscosity: 34 ± 0.37 mPa·s
  electrical conductivity: 0.738 ± 0.0074 S/m
338.15 K
  electrical conductivity: 0.88 ± 0.0088 S/m
343.15 K
  viscosity: 23.94 ± 0.27 mPa·s
  electrical conductivity: 1.04 ± 0.01 S/m
